Experiments:
[1] = tested on: interleukin 5 (IL-5) production; assay: Cytokine production inhibitory effect: IL-5 production by murine spleen cells treated with anti-mouse CD3 antibody and IL-2 (ELISA); type: cell-based, Balb/c mice; settings: anti-CD3 antibody + IL-2, 40 to 48 hours, read-out: IL-5 production inhibitory ratio (%); for inhibition at 100 ppm: test compound 100 ppm
Experimental: (§1) Murine spleen cells were treated with anti-mouse CD3 antibody and IL-2 to induce cytokine production. The test compounds were added to the cytokine production system to evaluate their inhibitory effect. Namely, anti-mouse CD3 antibody adjusted to from 10 to 20 μg/ml with borate buffered physiological saline (pH 8.5) was pipetted into a 96-well cell culture plate in an amount of 50 μl/well and left to stand at 4° C. for 18 hours. The unreacted solution was removed, washing with Hank's buffer solution was carried out once, and IL-2 adjusted to 10 ng/ml with a RPMI liquid containing 10% fetal bovine serum (FCS) was pipetted in an amount of 50 μl/well. For the negative control group, a solution alone without anti-CD3 antibody nor IL-2 was applied. Then, the diluted solution of each of the test compounds (concentration: 100 ppm unless otherwise specified) was pipetted in an amount of 50 μl/well, and a cell suspension of 1×10^7 cells/ml, prepared from spleen of Balb/c mice (female, 7 to 10 week old) was pipetted thereinto in an amount of 100 μl/well. After cultivation in an incubator (37° C., 5% carbon dioxide gas) for from 40 to 48 hours, the culture supernatant was recovered to measure the cytokine production amount by ELISA method.
(§2) With respect to interleukin 5 (IL-5) as a typical Th2 type cytokine and interferon γ (IFN-γ) as a typical Th1 type cytokine, measurements were carried out by the following methods, respectively. Namely, quantitative determination of IL-5 was carried out by the following ELISA method. First, rat anti-mouse IL-5 antibody (Endogen Code No. MM-550C) as a primary antibody was diluted with carbonate buffer solution (pH 9.5) to 1 μg/ml, and spread in a 96 well plate (IWAKI, Code No. 3860-096) in an amount of 50 μl/well for coating at 4° C. overnight (16 to 24 hours). Then, the plate was subjected to blocking at 37° C. for 2 hours by phosphate buffered physiological saline containing 10% FCS (pH 7.2) (blocking buffer solution) (250 μl/well). The plate was washed with PBS (washing buffer) containing 0.05% Tween 20 (Nacalai Tesque, Code No. 281-51) four times, and a diluted liquid of the culture supernatant was spread in an amount of 50 μl/well, followed by incubation at room temperature for 1 hour. For preparation of a standard line, recombinant mouse IL-5 (R&D systems, Code No. 405-ML) was employed. The plate was washed with a washing buffer four times, and biotin-labeled rat anti-mouse IL-5 antibody (Pharmingen, Code No. 18062D) as a secondary antibody diluted to 0.5 μg/ml with a blocking buffer containing 0.05% Tween 20 was added thereto (50 μl/well), followed by incubation at room temperature for 1 hour. The plate was washed with a washing buffer four times, strept avidin-labeled peroxidase (ProZyme, Code No. CJ30H001) diluted 800 times with a blocking buffer containing 0.05% Tween 20 was added thereto (50 μl/well), followed by reaction at room temperature for 15 minutes. The plate was washed with a washing buffer four times, and a […] substrate solution (SIGMA, Code No. T-8665) was added thereto in an amount of 100 μl/well for color developing for from 10 to 20 minutes. A 1M sulfuric acid solution was added thereto in an amount of 100 μl/well to terminate the reaction, and absorption (wavelength 450 nm) was measured by means of micro plate reader (SPECTRA max, Wako Pure Chemicals Industries, Ltd.). Quantitative determination of IFN-γ was carried out in the same manner as the measurement of IL-5, employing rat anti-mouse IFN-γ antibody (Pharmingen, Code No. 18181D) and biotin labeled rat anti-mouse IFN-γ antibody (Pharmingen, Code NO. 18112D), as a primary antibody and a secondary antibody, respectively. For preparation of a standard line, recombinant mouse IFN-γ (GENZYME, Code No. 3485) was employed. The experiment was carried out in duplicate, and the average of the cytokine production amount was obtained. […]

[2] = tested on: interferon γ (IFN-γ) production; assay: Cytokine production inhibitory effect: IFN-γ production by murine spleen cells treated with anti-mouse CD3 antibody and IL-2 (ELISA); type: cell-based, Balb/c mice; settings: anti-CD3 antibody + IL-2, 40 to 48 hours, read-out: IFN-γ production inhibitory ratio (%); for inhibition at 100 ppm: test compound 100 ppm
Experimental: as §1, §2

O=C(Nc1ccc(Oc2ccc(C(F)(F)F)cn2)c(Cl)c1)c1cccc(Cl)c1 [compound 6]
inhibition at 100 ppm [1]: 100%
inhibition at 100 ppm [2]: 100%
melting point: 160 to 161 °C

O=C(Nc1ccc(Oc2ccc(C(F)(F)F)cn2)c(Cl)c1)c1cccc(C(F)(F)F)c1 [compound 7]
inhibition at 100 ppm [1]: 100%
inhibition at 100 ppm [2]: 100%
melting point: 127 to 129 °C

O=C(Nc1ccc(Oc2ccc(C(F)(F)F)cn2)c(Cl)c1)c1ccc(C(F)(F)F)cc1 [compound 8]
inhibition at 10 ppm ([1]; test compound 10 ppm): 58%
inhibition at 10 ppm ([2]; test compound 10 ppm): 67%
melting point: 154 to 155 °C

COc1ccc(C(=O)Nc2ccc(Oc3ccc(C(F)(F)F)cn3)c(Cl)c2)cc1OC [compound 9]
inhibition at 100 ppm [1]: 96%
inhibition at 100 ppm [2]: 100%
melting point: 152 to 154 °C

O=C(Nc1ccc(Oc2ccc(C(F)(F)F)cn2)c(Cl)c1)c1ccccc1O [compound 15]
inhibition at 100 ppm [1]: 99%
inhibition at 100 ppm [2]: 100%
melting point: 165 to 167 °C

O=CNc1cccc(C(=O)Nc2ccc(Oc3ccc(C(F)(F)F)cn3)c(Cl)c2)c1O [compound 17]
inhibition at 100 ppm [1]: 100%
inhibition at 100 ppm [2]: 100%
melting point: 159 to 161 °C

O=C(Nc1ccc(Cc2ccccc2)cc1)c1cc([N+](=O)[O-])ccc1O [compound 18]
inhibition at 100 ppm [1]: 100%
inhibition at 100 ppm [2]: 100%
melting point: 211.5 to 214.4 °C

O=C(Nc1ccc(C23CC4CC(CC(C4)C2)C3)cc1)c1cc([N+](=O)[O-])ccc1Cl [compound 21]
inhibition at 100 ppm [1]: 96%
inhibition at 100 ppm [2]: 89%
melting point: 262 °C

Cc1cc(C23CC4CC(CC(C4)C2)C3)ccc1NC(=O)c1ccccc1Cl [compound 22]
inhibition at 100 ppm [1]: 100%
inhibition at 100 ppm [2]: 100%
melting point: 154 °C

Cc1cc(C23CC4CC(CC(C4)C2)C3)ccc1NC(=O)c1cccc([N+](=O)[O-])c1 [compound 23]
inhibition at 100 ppm [1]: 100%
inhibition at 100 ppm [2]: 100%
melting point: 177 °C

Cc1cc(C23CC4CC(CC(C4)C2)C3)ccc1NS(=O)(=O)c1ccccc1Cl [compound 25]
inhibition at 100 ppm [1]: 89%
inhibition at 100 ppm [2]: 93%
melting point: 200 °C

Cc1ccc(NC(=O)c2cc([N+](=O)[O-])ccc2Cl)c(C)c1 [compound 26]
inhibition at 100 ppm [1]: 82%
inhibition at 100 ppm [2]: 30%
melting point: 206 °C

COc1ccc(NC(=O)c2cc([N+](=O)[O-])ccc2Cl)cc1 [compound 28]
inhibition at 100 ppm [1]: 100%
inhibition at 100 ppm [2]: 100%
melting point: 154 °C

CSc1ccc(NC(=O)c2cc([N+](=O)[O-])ccc2Cl)cc1 [compound 29]
inhibition at 100 ppm [1]: 98%
inhibition at 100 ppm [2]: 100%
melting point: 162 °C

O=C(Nc1ccc(C(F)(F)F)cc1)c1cc([N+](=O)[O-])ccc1Cl [compound 30]
inhibition at 100 ppm [1]: 100%
inhibition at 100 ppm [2]: 100%
melting point: 176 °C

Cc1cc(Oc2ccc(C(F)(F)F)cc2)ccc1NC(=O)c1cc([N+](=O)[O-])ccc1Cl [compound 31]
inhibition at 100 ppm [1]: 62%
inhibition at 100 ppm [2]: 63%
melting point: 196 °C

O=C(Nc1ccc(Sc2ccc(C(F)(F)F)cn2)cc1)c1cc([N+](=O)[O-])ccc1Cl [compound 32]
inhibition at 100 ppm [1]: 99%
inhibition at 100 ppm [2]: 98%
melting point: 189 °C

O=C(Nc1cccc(C(F)(F)F)c1)c1cc([N+](=O)[O-])ccc1Cl [compound 33]
inhibition at 100 ppm [1]: 100%
inhibition at 100 ppm [2]: 100%
melting point: 168 °C

COC(=O)c1cccc(C(=O)Nc2ccc(C34CC5CC(CC(C5)C3)C4)cc2C)c1 [compound 34]
inhibition at 100 ppm [1]: 88%
inhibition at 100 ppm [2]: 97%
melting point: 184 °C

Cc1cc(C23CC4CC(CC(C4)C2)C3)ccc1NC(=O)c1cccc(C(=O)O)c1 [compound 35]
inhibition at 100 ppm [1]: 100%
inhibition at 100 ppm [2]: 100%
melting point: 232 °C

Cc1cc(C23CC4CC(CC(C4)C2)C3)ccc1NC(=O)c1cc([N+](=O)[O-])ccc1C [compound 36]
inhibition at 100 ppm [1]: 81%
inhibition at 100 ppm [2]: 85%
melting point: 198 °C

O=C(Nc1ccccc1Oc1ccccc1)c1cc([N+](=O)[O-])ccc1Cl [compound 37]
inhibition at 100 ppm [1]: 97%
inhibition at 100 ppm [2]: 100%
melting point: 110 °C

O=C(Nc1ccccc1-c1ccccc1)c1cc([N+](=O)[O-])ccc1Cl [compound 38]
inhibition at 100 ppm [1]: 86%
inhibition at 100 ppm [2]: 93%
melting point: 154 °C

O=C(Nc1cccc(Oc2ccccc2)c1)c1cc([N+](=O)[O-])ccc1Cl [compound 40]
inhibition at 100 ppm [1]: 100%
inhibition at 100 ppm [2]: 100%
melting point: 103 °C

Cc1cc(C23CC4CC(CC(C4)C2)C3)ccc1NS(=O)(=O)c1cc([N+](=O)[O-])ccc1C [compound 44]
inhibition at 100 ppm [1]: 93%
inhibition at 100 ppm [2]: 100%
melting point: 241 °C

Cc1cc(C23CC4CC(CC(C4)C2)C3)ccc1NC(=O)c1cc([N+](=O)[O-])ccc1F [compound 45]
inhibition at 100 ppm [1]: 99%
inhibition at 100 ppm [2]: 99%
melting point: 198 °C

COC(=O)c1cc(C(=O)Nc2ccc(C34CC5CC(CC(C5)C3)C4)cc2C)cc([N+](=O)[O-])c1 [compound 47]
inhibition at 100 ppm [1]: 89%
inhibition at 100 ppm [2]: 95%
melting point: 178 °C

O=[N+]([O-])c1ccc(Cl)c(S(=O)(=O)Nc2ccc(Oc3ccccc3)cc2)c1 [compound 49]
inhibition at 100 ppm [1]: 100%
inhibition at 100 ppm [2]: 100%
melting point: 148 °C

Cc1cc(C23CC4CC(CC(C4)C2)C3)ccc1NC(=O)c1cccc(C#N)c1 [compound 50]
inhibition at 100 ppm [1]: 95%
inhibition at 100 ppm [2]: 98%
melting point: 83 °C

O=C(c1ccccc1)c1ccc(NC(=O)c2cc([N+](=O)[O-])ccc2Cl)cc1 [compound 51]
inhibition at 100 ppm [1]: 99%
inhibition at 100 ppm [2]: 100%
melting point: 226 °C

COc1ccc([N+](=O)[O-])c(OC)c1C(=O)Nc1ccc(C23CC4CC(CC(C4)C2)C3)cc1C [compound 52]
inhibition at 100 ppm [1]: 75%
inhibition at 100 ppm [2]: 96%
melting point: 115 °C

Cc1cc(C23CC4CC(CC(C4)C2)C3)ccc1NC(=O)c1c(Cl)ccc([N+](=O)[O-])c1Cl [compound 53]
inhibition at 100 ppm [1]: 94%
inhibition at 100 ppm [2]: 93%
melting point: 224 °C

Cc1cc(C23CC4CC(CC(C4)C2)C3)ccc1NC(=O)c1ccc([N+](=O)[O-])cc1Cl [compound 55]
inhibition at 100 ppm [1]: 96%
inhibition at 100 ppm [2]: 100%
melting point: 200 °C

Cc1cc(C23CC4CC(CC(C4)C2)C3)ccc1NC(=O)c1cc([N+](=O)[O-])ccc1O [compound 56]
inhibition at 100 ppm [1]: 100%
inhibition at 100 ppm [2]: 100%
melting point: 131 °C

Cc1cc(C23CC4CC(CC(C4)C2)C3)ccc1NC(=O)c1cc(Cl)ccc1[N+](=O)[O-] [compound 57]
inhibition at 100 ppm [1]: 90%
inhibition at 100 ppm [2]: 98%
melting point: 233 °C

Source: patent US7132546B2, “Aniline derivatives or salts thereof and cytokine production inhibitors containing the same” (Ishihara Sangyo Kaisha, Ltd., priority 2000, dated 2006)
